Results reported in US10208015B2, “Aryl-triazolyl pyridines as pest control agents” (BAYER ANIMAL HEALTH GMBH, priority 2014, dated 2019).
Read-outs that look alike come from different tables or passages of the source.

Columns and labels:
[1] = logP by HPLC on reversed-phase column (C18), EEC Directive 79/831 Annex V.A8; type: physicochemical; details: for logP: HPLC, C18, acetonitrile (0.1% formic acid)/water (0.09% formic acid) gradient
Boophilus microplus = Boophilus microplus injection test; type: in vivo; details: application rate 20 μg/animal, assessed after 7 days
Protocol: Boophilus microplus—Injection Test • Solvent: dimethyl sulphoxide […] The animals are transferred into dishes and kept in a climate-controlled room. Efficacy is assessed after 7 days by laying of fertile eggs. Eggs which are not visibly fertile are stored in a climate-controlled cabinet until the larvae hatch after about 42 days.

Ctenocephalides felis = Ctenocephalides felis oral test; type: in vivo; details: application rate 100 ppm in citrated cattle blood, after 2 days
Excerpt: Ctenocephalides felis—Oral Test • Solvent: dimethyl sulphoxide […] Dilution with citrated cattle blood gives the desired concentration. About 20 unfed adult cat fleas (Ctenocephalides felis) are placed into a chamber which is closed at the top and bottom with gauze. A metal cylinder whose bottom end is closed with parafilm is placed onto the chamber. The cylinder contains the blood/active compound preparation, which can be imbibed by the fleas through the parafilm membrane.

Lucilia cuprina = Lucilia cuprina test; type: in vivo; details: application rate 100 ppm, L1 larvae, after 2 days
Protocol: (§1) • Solvent: dimethyl sulphoxide
(§2) To produce a suitable preparation of active compound, 10 mg of active compound are mixed with 0.5 ml of dimethyl sulphoxide, and the concentrate is diluted with water to the desired concentration.
About 20 L1 larvae of the Australian sheep blowfly (Lucilia cuprina) are transferred into a test vessel containing minced horsemeat and the active compound preparation of the desired concentration.
After 2 days, the kill in % is determined. 100% means that all the larvae have been killed; 0% means that no larvae have been killed.

Musca domestica = Musca domestica test; type: in vivo; details: application rate 100 ppm, adult houseflies, after 2 days
Protocol: as §1, §2
Vessels containing a sponge treated with sugar solution and the active compound preparation of the desired concentration are populated with 10 adult houseflies (Musca domestica).
After 2 days, the kill in % is determined. 100% means that all of the flies have been killed; 0% means that none of the flies have been killed.

Phaedon cochleariae = Phaedon cochleariae spray test; type: in vivo; details: application rate 100 g/ha, after 7 days
Protocol: Phaedon Cochleariae—Spray Test
(§3) • Solvent: 78.0 parts by weight of acetone • 1.5 parts by weight of dimethylformamide • Emulsifier: alkylaryl polyglycol ether
(§4) To produce a suitable preparation of active compound, 1 part by weight of active compound is dissolved using the stated parts by weight of solvent and made up with water containing an emulsifier concentration of 1000 ppm until the desired concentration is attained. To produce further test concentrations, the preparation is diluted with emulsifier-containing water.
After 7 days, the efficacy in % is determined. 100% means that all the beetle larvae have been killed; 0% means that no beetle larvae have been killed.

Spodoptera frugiperda = Spodoptera frugiperda spray test; type: in vivo; details: application rate 100 g/ha, after 7 days
Protocol: Spodoptera Frugiperda—Spray Test
as §3, §4
Leaf discs of maize (Zea mays) are sprayed with an active compound preparation of the desired concentration and, after drying, populated with caterpillars of the armyworm (Spodopterafrugiperda).
After 7 days, the efficacy in % is determined. 100% means that all the caterpillars have been killed; 0% means that no caterpillars have been killed.

Tetranychus urticae = Tetranychus urticae spray test, OP-resistant; type: in vivo; details: after 6 days
Protocol: Tetranychus Urticae—Spray Test, OP-Resistant
as §3
To produce further test concentrations, the preparation is diluted with emulsifier-containing water.
After 6 days, the efficacy in % is determined. 100% means that all the spider mites have been killed; 0% means that none of the spider mites have been killed.

[2] = test system: Boophilus microplus Parkhurst strain, SP-resistant; assay: Boophilus microplus dip test; type: in vivo; details: application rate 100 ppm, assessed after 7 days
Protocol: Boophilus microplus—Dip Test
• Test animals: cattle ticks (Boophilus microplus) Parkhurst strain, SP-resistant • Solvent: dimethyl sulphoxide
10 mg of active compound are dissolved in 0.5 ml of dimethyl sulphoxide. To produce a suitable formulation, the active compound solution is diluted with water to the concentration desired in each case.
This active compound preparation is pipetted into tubes. 8-10 engorged adult female cattle ticks (Boophilus microplus) are transferred into a further tube with holes. The tube is immersed into the active compound preparation, and all the ticks are completely wetted. After the liquid has run out, the ticks are transferred on filter discs into plastic dishes and stored in a climate-controlled room.
Efficacy is assessed after 7 days by laying of fertile eggs. Eggs which are not visibly fertile are stored in a climate-controlled cabinet until the larvae hatch after about 42 days. An efficacy of 100% means that none of the ticks has laid any fertile eggs; 0% means that all the eggs are fertile.

| SMILES | logP [1] | efficacy (laying of fertile eggs) (Boophilus microplus) [%] | efficacy (kill in %) (Ctenocephalides felis) [%] | efficacy (kill in %) (Lucilia cuprina) [%] | efficacy (kill in %) (Musca domestica) [%] | further results |
| --- | --- | --- | --- | --- | --- | --- |
| CCc1cc(C(F)(C(F)(F)F)C(F)(F)F)cc(Br)c1N [2-bromo-6-ethyl-4-heptafluoroisopropylaniline] | – | – | – | – | – | log P (HPLC-MS) [1]: 4.38 |
| CCc1cc(C(F)(C(F)(F)F)C(F)(F)F)cc(Cl)c1N [2-chloro-6-ethyl-4-heptafluoroisopropylaniline] | – | – | – | – | – | log P (HPLC-MS) ([1]; HPLC-MS method a)): 4.67 |
| Cc1cc(C(F)(C(F)(F)F)C(F)(F)F)cc(C(F)(F)F)c1N [4-heptafluoroisopropyl-2-methyl-6-trifluoromethylaniline] | – | – | – | – | – | log P (HPLC-MS) ([1]; HPLC-MS method a)): 4.67 |
| COc1ncc(-c2cn(-c3c(Cl)cc(C(F)(C(F)(F)F)C(F)(F)F)cc3Cl)nn2)cc1C(=O)NC1(C#N)CC1 [Example 4] | 4.3 | 100 | 100 | 100 | 100 | efficacy in % (Phaedon cochleariae): 100%; efficacy in % (Spodoptera frugiperda): 100% |
| COc1ncc(-c2cn(-c3c(C)cc(C(F)(C(F)(F)F)C(F)(F)F)cc3C)nn2)cc1C(=O)NC1(C#N)CC1 [Example 7] | 4.2 | 100 | 100 | 100 | – | efficacy in % (Phaedon cochleariae): 100%; efficacy in % (Spodoptera frugiperda): 100% |
| COc1ncc(-c2cn(-c3c(Cl)cc(C(F)(C(F)(F)F)C(F)(F)F)cc3Cl)nn2)cc1C(=O)NC1CC1 [Example 10] | 4.4 | 100 | 100 | 95 | – | – |
| COc1ncc(-c2cn(-c3c(C)cc(C(F)(C(F)(F)F)C(F)(F)F)cc3C)nn2)cc1C(=O)NC1CC1 [Example 11] | 4.3 | 100 | 100 | 100 | 100 | efficacy in % (Phaedon cochleariae): 100%; efficacy in % (Spodoptera frugiperda): 100%; efficacy in % (Tetranychus urticae; application rate 20 g/ha): 90% |
| CCc1cc(C(F)(C(F)(F)F)C(F)(F)F)cc(C)c1-n1cc(-c2cnc(Cl)c(C(=O)N(C)C3CC3)c2)nn1 [Example 19] | 4.6 | 100 | 100 | 100 | 80 | efficacy (laying of fertile eggs) [2]: 100% |
| CCc1cc(C(F)(C(F)(F)F)C(F)(F)F)cc(C)c1-n1cc(-c2cnc(Cl)c(C(=O)NC3CC3)c2)nn1 [Example 20] | 4.1 | 100 | 100 | 100 | – | efficacy (laying of fertile eggs) [2]: 100% |
| Cc1cc(C(F)(C(F)(F)F)C(F)(F)F)cc(Br)c1-n1cc(-c2cnc(Cl)c(C(=O)N(C)C3CC3)c2)nn1 [Example 21] | 4.4 | 100 | 100 | 100 | 100 | efficacy (laying of fertile eggs) [2]: 100% |
| Cc1cc(C(F)(C(F)(F)F)C(F)(F)F)cc(Br)c1-n1cc(-c2cnc(Cl)c(C(=O)NC3CC3)c2)nn1 [Example 22] | 3.9 | 100 | 100 | 100 | 100 | efficacy (laying of fertile eggs) [2]: 100% |
| CCc1cc(C(F)(C(F)(F)F)C(F)(F)F)cc(C)c1-n1cc(-c2cnc(Cl)c(C(=O)NCC(F)(F)F)c2)nn1 [Example 23] | 4.5 | 100 | 100 | 100 | – | – |
| CCc1cc(C(F)(C(F)(F)F)C(F)(F)F)cc(C)c1-n1cc(-c2cnc(Cl)c(C(=O)NC(C)C)c2)nn1 [Example 24] | 4.4 | 100 | 100 | – | – | – |
| CCNC(=O)c1cc(-c2cn(-c3c(C)cc(C(F)(C(F)(F)F)C(F)(F)F)cc3CC)nn2)cnc1Cl [Example 25] | 4.1 | 100 | 100 | 100 | 80 | efficacy (laying of fertile eggs) [2]: 100% |
| Cc1cc(C(F)(C(F)(F)F)C(F)(F)F)cc(Br)c1-n1cc(-c2cnc(Cl)c(C(=O)NCC(F)(F)F)c2)nn1 [Example 26] | 4.3 | 100 | 100 | 100 | 100 | – |
| CCNC(=O)c1cc(-c2cn(-c3c(C)cc(C(F)(C(F)(F)F)C(F)(F)F)cc3Br)nn2)cnc1Cl [Example 27] | 3.9 | 100 | 100 | 100 | 100 | efficacy (laying of fertile eggs) [2]: 100% |
| O=C(NCC(F)(F)F)c1cc(-c2cn(-c3c(Cl)cc(-c4ccccc4)cc3Cl)nn2)cnc1Cl [Example 28] | 3.9 | 100 | 100 | – | – | – |
| CC(C)NC(=O)c1cc(-c2cn(-c3c(Cl)cc(-c4ccccc4)cc3Cl)nn2)cnc1Cl [Example 29] | 3.8 | 100 | – | – | – | – |
| CCNC(=O)c1cc(-c2cn(-c3c(Cl)cc(-c4ccccc4)cc3Cl)nn2)cnc1Cl [Example 30] | 3.5 | 100 | 100 | 100 | – | – |
| CN(C(=O)c1cc(-c2cn(-c3c(Cl)cc(-c4ccccc4)cc3Cl)nn2)cnc1Cl)C1CC1 [Example 31] | 4.0 | 100 | 100 | 100 | – | – |
| O=C(NC1CC1)c1cc(-c2cn(-c3c(Cl)cc(-c4ccccc4)cc3Cl)nn2)cnc1Cl [Example 32] | 3.5 | 100 | 100 | 100 | – | – |
| O=C(NC1CC1)c1cc(-c2cn(-c3c(Cl)cc(C(F)(C(F)(F)F)C(F)(F)F)cc3OC(F)(F)F)nn2)cnc1Cl [Example 33] | 4.1 | 100 | 100 | 100 | 100 | efficacy (laying of fertile eggs) [2]: 100% |
| N#CC1(NC(=O)c2cc(-c3cn(-c4c(Cl)cc(C(F)(C(F)(F)F)C(F)(F)F)cc4OC(F)(F)F)nn3)cnc2Cl)CC1 [Example 34] | 4.0 | 100 | 100 | 100 | 100 | efficacy in % (Phaedon cochleariae): 100%; efficacy in % (Tetranychus urticae; application rate 100 g/ha): 100% |
| O=C(NC1CC1)c1cc(-c2cn(-c3c(Cl)cc(C(F)(C(F)(F)F)C(F)(F)F)cc3OC(F)F)nn2)cnc1Cl [Example 36] | 3.7 | – | – | – | – | – |
| CN(C(=O)c1cc(-c2cn(-c3c(Cl)cc(C(F)(C(F)(F)F)C(F)(F)F)cc3OC(F)F)nn2)cnc1Cl)C1CC1 [Example 37] | 4.2 | – | – | – | – | – |
| N#CC1(NC(=O)c2cc(-c3cn(-c4c(Cl)cc(C(F)(C(F)(F)F)C(F)(F)F)cc4OC(F)F)nn3)cnc2Cl)CC1 [Example 38] | 3.7 | – | – | – | – | – |
